Measured values from patent US20240277796A1, “METHODS FOR INHIBITING RAS” (Revolution Medicines, Inc., priority 2021, published 2024).

Experiments:
AsPC-1 (K-Ras G12D) = experiment: pERK potency assay, AsPC-1; format: cell-based; conditions: Homo sapiens, ASPC1, read-out: IC50 in the pERK potency assay with respect to AsPC-1 (K-Ras G12D)
Source text: The purpose of this assay was to measure the ability of test compounds to inhibit K-Ras in cells. Activated K-Ras induces increased phosphorylation of ERK at Threonine 202 and Tyrosine 204 (pERK). This procedure measures a decrease in cellular pERK in response to test compounds. The procedure described below in NCI-H358 cells is applicable to K-Ras G12C.
Note: This protocol may be executed substituting other cell lines to characterize inhibitors of other RAS variants, including, for example, AsPC-1 (K-Ras G12D), Capan-1 (K-Ras G12V), or NCI-H1355 (K-Ras G13C).
NCI-H358 cells were grown and maintained using media and procedures recommended by the ATCC. On the day prior to compound addition, cells were plated in 384-well cell culture plates (40 μl/well) and grown overnight in a 37° C., 5% CO2 incubator. Test compounds were prepared in 10, 3-fold dilutions in DMSO, with a high concentration of 10 mM. […]
In some experiments, cellular pERK level was determined using the AlphaLISA SureFire Ultra p-ERK1/2 Assay Kit (PerkinElmer). […] Signal was read on an Envision plate reader (PerkinElmer) using standard AlphaLISA settings. […] Signal was plotted vs. the decadal logarithm of compound concentration, and IC50 was determined by fitting a 4-parameter sigmoidal concentration response model.

SW1573 [1] = conditions: Canon et al., Nature 575:217-223 (2019); cited from earlier work
SW1573 [2] = conditions: Canon et al., Nature 575:217-223 (2019); cited from earlier work; remark: listed apart in the source
K-Ras G13C = K-Ras G13C (Homo sapiens, UniProt P01116, G13C); experiment: Raf-Ras (FRET or MOA) binding assay: disruption of BRAF RBD interaction with K-Ras G13C; conditions: with Cyclophilin A, TR-FRET; read-out: IC50 in the Raf-Ras (FRET or MOA) binding assay re: K-Ras G13C
Sequence of K-Ras G13C (P01116 1-188 isoform P01116-2 G13C): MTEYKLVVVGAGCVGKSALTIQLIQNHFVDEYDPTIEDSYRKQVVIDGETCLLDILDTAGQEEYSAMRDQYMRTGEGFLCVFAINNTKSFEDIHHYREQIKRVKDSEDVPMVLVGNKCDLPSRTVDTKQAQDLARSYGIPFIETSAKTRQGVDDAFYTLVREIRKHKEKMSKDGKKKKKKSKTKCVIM
Sequence of K-Ras G13C (P62937 whole entry partner, the tested form may be a part): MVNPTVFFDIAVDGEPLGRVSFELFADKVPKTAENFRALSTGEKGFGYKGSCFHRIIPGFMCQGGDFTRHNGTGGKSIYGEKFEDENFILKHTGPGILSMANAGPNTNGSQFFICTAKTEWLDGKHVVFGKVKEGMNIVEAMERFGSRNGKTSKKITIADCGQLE
Source text: Disruption of B-Raf Ras-Binding Domain (BRAF^RBD) Interaction with K-Ras by Compounds of the Invention (Also Called a FRET Assay or an MOA Assay)
Note—The following protocol describes a procedure for monitoring disruption of K-Ras G12C (GMP-PNP) binding to BRAF^RBD by a compound of the invention. This protocol may also be executed substituting other Ras proteins or nucleotides.
The purpose of this biochemical assay was to measure the ability of test compounds to facilitate ternary complex formation between a nucleotide-loaded K-Ras isoform and Cyclophilin A; the resulting ternary complex disrupts binding to a BRAF^RBD construct, inhibiting K-Ras signaling through a RAF effector. Data was reported as IC50 values.
In assay buffer containing 25 mM HEPES pH 7.3, 0.002% Tween20, 0.1% BSA, 100 mM NaCl and 5 mM MgCl2, tagless Cyclophilin A, His 6-K-Ras-GMPPNP, and GST-BRAF^RBD were combined in a 384-well assay plate at final concentrations of 25 μM, 12.5 nM and 50 nM, respectively. Compound was present in plate wells as a 10-point 3-fold dilution series starting at a final concentration of 30 μM. […] TR-FRET signal was read on a microplate reader (Ex 320 nm, Em 665/615 nm). […]

IC50 (K-Ras G13C) [µM]	SMILES	IC50 (AsPC-1 (K-Ras G12D)) [µM]	also measured
	CCn1c(-c2cccnc2[C@H](C)OC)c2c3cc(ccc31)-c1cc(cc(C(F)F)c1)C[C@H](NC(=O)[C@H](C(C)C)N1CC[C@]3(CCN(C(=O)[C@@H]4N[C@@H]4C4CC4)C3)C1)C(=O)N1CCC[C@H](N1)C(=O)OCC(C)(C)C2 [FA17]	> 8	
	C=CC(=O)N1CCN(c2nc(=O)n(-c3c(C)ccnc3C(C)C)c3nc(-c4c(O)cccc4F)c(F)cc23)[C@@H](C)C1 [AMG510]		sensitivity of cell line SW1573 to the inhibitor (SW1573 [1]): insensitive; sensitivity of cell line to RAS inhibitor (SW1573 [2]): insensitive
	CCn1c(-c2cccnc2[C@H](C)OC)c2c3cc(ccc31)-c1csc(n1)C[C@H](NC(=O)[C@H](C1CCCC1)N1CC[C@]3(CCN(C(=O)[C@@]4(C)CN4)C3)C1)C(=O)N1CCC[C@H](N1)C(=O)OCC(C)(C)C2 [FA5]	> 8	
> 1.5	CCn1c(-c2cccnc2[C@H](C)OC)c2c3cc(ccc31)N1CCS[C@@H](C[C@H](NC(=O)[C@@H](COC3CN(C(=O)C#CC(C)(C)N(C)C)C3)C(C)C)C(=O)N3CCC[C@H](N3)C(=O)OCC(C)(C)C2)C1 (atropisomer, axis not shown) [EA171]		
> 1.5	CCn1c(-c2cccnc2[C@H](C)OC)c2c3cc(ccc31)-c1cccc(c1)C[C@H](NC(=O)[C@@H](COC1CN(C(=O)C#CC(C)(C)N(C)C)C1)N(C)C)C(=O)N1CCC[C@H](N1)C(=O)OCC(C)(C)C2 (atropisomer, axis not shown) [EA169]		
